Assay results published in US5157052A, “Method for inhibiting IgE production” (priority 1990, dated 1992).

Assays:
Type in all cases: in vivo, mouse (Balb/c female)
Lyt 1 = assay: Splenocyte cell surface density/distribution (FACS): Lyt 1
IgD = assay: Splenocyte cell surface density/distribution (FACS): IgD
Experimental: (§1) One group of 4 unstimulated Balb/c female mice is injected with PBS (Group A). Another (Group B) is injected with 20 μg (±) methyl 11α,16-dihydroxy-16-methyl-9-oxoprosta-5Z,13E-dien-1-oate as in Example 13. […] A 3 cm incision is made with a scalpel above the left hip, and the spleen is cut free from adjoining tissue and placed in a 100 mn plastic culture dish containing 10 ml PBS. The splenic cells are then made into a suspension, by rubbing the spleens between the rough, frosted ends of microscope slides repeatedly until the only remaining particulate matter is connective tissue. Cells are transferred to a 15 ml conical polystyrene tube and centrifuged in a centrifuge at 1200 rpm for 5 minutes. The supernatant is discarded by aspiration and the cell pellet is resuspended in 10 ml PBS, then centrifuged at 1200 rpm for 5 minutes. The supernatant is aspirated and the cell pellet is resuspended in 15 mM Tris, 140 mM Ammonium Chloride, to lyse red blood cells. After incubating at room temperature for 10 minutes the cell suspension is centrifuged at 1200 rpm for 10 minutes. The supernatant is discarded and the cell pellet is resuspended in 10 ml FACS Buffer (PBS containing 0.1% BSA and 0.1% Sodium Azide). The cell suspension is filtered through sterile glass wool plugged in the top of a pasteur pipet. Cells in the flow through are counted using a hemacytometer, then the cell suspension is centrifuged at 1200 rpm for 5 minutes. The supernatant is discarded and the cell pellet is resuspended in a volume of FACS Buffer that will yield 4×10^7 cells/ml. 10 μl (4×10^5 cells) is added to each well of a 96-well V-bottom plate. 25 μl of diluted monoclonal antibody directed against splenocyte cell surface proteins is added to each well: Major Histocompatability Complex (MHC) Class II (M5114, ATCC, Rockville Md.), MHC Class I (M1/42, ATCC), Anti-IgD (JA12.5, ATCC, Rockville, Md.), Thymocyte (Thy)-1 (JIJ, ATCC), B220 (14.8, ATCC), Kappa light chain (187, ATCC), IL-2 Receptor (7D4, ATCC), Lyt-1 (7.313, ATCC) and CD23 (biotinylated B3B4) and incubated on ice for 30 minutes. 100 μl 10% BSA 0.1% sodium azide is added to each well, then the plates are centrifuged at 1200 rpm for 10 minutes. The liquid is removed by aspiration and the cell pellets are resuspended in 100 μl FACS Buffer, and centrifuged at 1200 rpm for 5 minutes. […] Samples are transferred to individual tubes and 10,000 cells are analyzed. Using the Lysis software (Becton Dickinson, Mountain View, Calif.) the mean channel log fluorescence and percent positive cells are determined for the entire cell population. […]

CD23 = assay: Splenocyte cell surface density/distribution (FACS): CD23
Experimental: as §1

MHC Class I = assay: Splenocyte cell surface density/distribution (FACS): MHC Class I
Experimental: as §1

κ Light Chain = assay: Splenocyte cell surface density/distribution (FACS): κ Light Chain
Experimental: as §1

B220 = assay: Splenocyte cell surface density/distribution (FACS): B220
[1] = anti-IgD stimulated mice, 20 μg days 3 and 4, day 7 (PBS 107)

CCCCC(C)(O)C/C=C/[C@H]1[C@H](O)CC(=O)[C@@H]1C/C=C\CCCC(=O)OC (mixture of isomers) [(±) methyl 11α,16-dihydroxy-16-methyl-9-oxoprosta-5Z,13E-dien-1-oate]
Percentage Positive Cells (Lyt 1; anti-IgD stimulated mice, 20 μg days 3 and 4, day 7 (PBS 31.3)): 30.4 ± 8.8%
Mean Channel Log Fluorescence (Lyt 1; anti-IgD stimulated mice, 20 μg days 3 and 4, day 7 (PBS 110)): 109 ± 2
Percentage Positive Cells (Lyt 1; unstimulated mice, 20 μg (PBS 31)): 44.5 ± 7%
Mean Channel Log Fluorescence (Lyt 1; unstimulated mice, 20 μg (PBS 110)): 117 ± 6
Percentage Positive Cells (IgD; anti-IgD stimulated mice, 20 μg days 3 and 4, day 7 (PBS 21.9)): 15.6 ± 8.4%
Mean Channel Log Fluorescence (IgD; [1]): 98 ± 0.5
Mean Channel Log Fluorescence (IgD; unstimulated mice, 20 μg (PBS 130)): 132 ± 3.5
Percentage Positive Cells (IgD; unstimulated mice, 20 μg (PBS printed 1.4)): 51.8 ± 3.7%
Percentage Positive Cells (CD23; anti-IgD stimulated mice, 20 μg days 3 and 4, day 7 (PBS 20.4)): 11.6 ± 1.6%
Mean Channel Log Fluorescence (CD23; anti-IgD stimulated mice, 20 μg days 3 and 4, day 7 (PBS 99)): 95 ± 1.5
Percentage Positive Cells (CD23; unstimulated mice, 20 μg (PBS 46.6)): 44.2 ± 6.6%
Mean Channel Log Fluorescence (CD23; unstimulated mice, 20 μg (PBS 95)): 94 ± 3.2
Percentage Positive Cells (MHC Class I; anti-IgD stimulated mice, 20 μg days 3 and 4, day 7 (PBS 48.5)): 59.4 ± 5.4%
Mean Channel Log Fluorescence (MHC Class I; anti-IgD stimulated mice, 20 μg days 3 and 4, day 7 (PBS 113)): 121 ± 15
Percentage Positive Cells (MHC Class I; unstimulated mice, 20 μg (PBS 57.8)): 79 ± 16%
Mean Channel Log Fluorescence (MHC Class I; unstimulated mice, 20 μg (PBS 112)): 113 ± 2
Percentage Positive Cells (κ Light Chain; anti-IgD stimulated mice, 20 μg days 3 and 4, day 7 (PBS 50)): 58 ± 14.6%
Mean Channel Log Fluorescence (κ Light Chain; anti-IgD stimulated mice, 20 μg days 3 and 4, day 7 (PBS 118)): 119 ± 7
Percentage Positive Cells (κ Light Chain; unstimulated mice, 20 μg (PBS 52.1)): 53.9 ± 2.1%
Mean Channel Log Fluorescence (κ Light Chain; unstimulated mice, 20 μg (PBS 135)): 131 ± 4
Percentage Positive Cells (B220; anti-IgD stimulated mice, 20 μg days 3 and 4, day 7 (PBS 49.3)): 61.2 ± .9%
Mean Channel Log Fluorescence (B220; [1]): 112 ± 4
Percentage Positive Cells (B220; unstimulated mice, 20 μg (PBS 49.6)): 50.6 ± 4.6%
Mean Channel Log Fluorescence (B220; unstimulated mice, 20 μg (PBS 104)): 105 ± 2.5
